Laboratory results published in patent publication US9227971B2, “Pyrazolo[1,5-a]pyrimidine compounds as mTOR inhibitors” (Merck Sharp & Dohme Corp., priority 2010, dated 2016).
Like-named read-outs stand apart in the source and are kept apart here.

Experiments:
[1] = test system: phosphorylated AKT Ser473 (pAKT S473), mTORC2 activity, PC3 cells; test: mTOR target engagement assay, immunofluorescent cell-based, pAKT S473 readout (mTORC2 activity)
Procedure, shortened: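 After blocking, cells were stained overnight at 4 °C with anti-pAKT S473 antibody, then a fluorescent secondary; inhibition was read as reduced fluorescence intensity.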

[2] = test system: phosphorylated 4E-BP1 Thr37/46 (p4E-BP1 Thr37/46), mTORC1 activity, PC3 cells; test: mTOR target engagement assay, immunofluorescent cell-based, p4E-BP1 Thr37/46 readout (mTORC1 activity); conditions: read-out: p4E-BP1 Thr37/46 IC50
Procedure, shortened: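 Read-out is fluorescence intensity of immunostained p4E-BP1 Thr37/46 in fixed PC3 cells, fitted to a logistic curve for IC50 with DMSO-only wells as top. Cells had been exposed to serial compound dilutions for ninety minutes at 37° C in 5% FBS medium with 0.25% DMSO.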

[3] = Homo sapiens, PC-3, Table 3-1, PC3 cells
[4] = Homo sapiens, PC-3, Table 7-8, PC3 cells
[5] = Homo sapiens, PC-3, PC3 cells, compound treatment ninety minutes at 37° C.
[6] = Homo sapiens, PC-3, Table 6-1, PC3 cells
[7] = Homo sapiens, PC-3, Table 7-4, PC3 cells

| SMILES | IC50 [1, 3] | IC50 [2, 3] | IC50 [1, 5] | IC50 [2, 5] | further results |
| --- | --- | --- | --- | --- | --- |
| CS(=O)(=O)c1c([C@@H]2C[C@H]3CC[C@@H](C2)N3C(=O)c2cc(N)n[nH]2)nc2c(-c3ccc(-c4ccccc4F)nc3)cnn2c1N [Compound 3.134] | – | – | – | – | IC50 ([1]; Table 3-1, PC3 cells): 1 to 100 nM; IC50 ([2]; Table 3-1, PC3 cells): 1 to 100 nM |
| CS(=O)(=O)c1c([C@@H]2C[C@H]3CC[C@@H](C2)N3C(=O)c2nnc[nH]2)nc2c(-c3cnn(-c4ccc(F)cc4)c3)cnn2c1N [Compound 3.88, ((1R,3s,5S)-3-(7-amino-3-(1-(4-fluorophenyl)-1H-pyrazol-4-yl)-6-(methyslulfonyl)pyrazolo[1,5-a]pyrimidin-5-yl)-8-azabicyclo[3.2.1]octan-8-yl)(4H-1,2,4-triazol-3-yl)methanone] | 100 to 1000 nM | 1000 to 10000 nM | – | – | – |
| Cc1nnc(C(=O)N2[C@@H]3CC[C@H]2C[C@H](c2nc4c(-c5ccc(-c6ccccc6F)nc5)cnn4c(N)c2S(C)(=O)=O)C3)[nH]1 [Compound 3.133, ((1R,3s,5S)-3-(7-amino-3-(6-(2-fluorophenyl)pyridin-3-yl)-6-(methylsulfonyl)pyrazolo[1,5-a]pyrimidin-5-yl)-8-azabicyclo[3.2.1]octan-8-yl)(5-methyl-4H-1,2,4-triazol-3-yl)methanone] | 1 to 100 nM | 1 to 100 nM | – | – | – |
| Nc1nnc(C(=O)N2[C@@H]3CC[C@H]2C[C@H](c2nc4c(-c5ccc(C(N)(C(F)(F)F)C(F)(F)F)nc5)cnn4c(N)c2C2CC2)C3)[nH]1 [Compound 7.88, ((1R,3s,5S)-3-(7-amino-3-(6-(2-amino-1,1,1,3.3,3-hexafluoropropan-2-yl)pyridin-3-yl)-6-cyclopropylpyrazolo [1,5-a]pyrimidin-5-yl)-8-azabicyclo[3.2.1]octan-8-yl)(5-amino-4H-1,2,4-triazol-3-yl)methanone] | – | – | – | – | IC50 ([1]; Homo sapiens, PC-3, PC3 cells): 1000 to 10000 nM; IC50 ([2]; Homo sapiens, PC-3, PC3 cells): 1000 to 10000 nM |
| CC(=O)c1c([C@@H]2C[C@H]3CC[C@@H](C2)N3C(=O)c2nnc[nH]2)nc2c(-c3ccc(C4(O)CCC4)nc3)cnn2c1N [Compound 7.40, 1-(5-((1R,3s,5S)-8-(4H-1,2,4-triazole-3-carbonyl)-8-azabicyclo[3.2.1]octan-3-yl)-7-amino-3-(6-(1-hydroxycyclobutyl)pyridin-3-yl)pyrazolo[1,5-a]pyrimidin-6-yl)ethanone] | – | – | – | – | IC50 [1, 4]: 1 to 100 nM; IC50 [2, 4]: 1 to 100 nM |
| CC(=O)c1c([C@@H]2C[C@H]3CC[C@@H](C2)N3C(=O)c2nnc[nH]2)nc2c(-c3ccc(C)nc3)cnn2c1N [Compound 1.1.79, 1-(5-((1R,3s,5S)-8-(4H-1,2,4-triazole-3-carbonyl)-8-azabicyclo[3.2.1]octan-3-yl)-7-amino-3-(6-methylpyridin-3-yl)pyrazolo[1,5-a]pyrimidin-6-yl)ethanone] | – | – | 1 to 100 nM | 1 to 100 nM | – |
| Cc1cnc(-c2ccc(-c3cnn4c(N)c(C5CC5)c([C@@H]5C[C@H]6CC[C@@H](C5)N6C(=O)CO)nc34)cn2)[nH]1 [Compound 6.27, 1-((1R,3s,5S)-3-(7-amino-6-cyclopropyl-3-(6-(5-methyl-1H-imidazol-2-yl)pyridin-3-yl)pyrazolo[1,5-a]pyrimidin-5-yl)-8-azabicyclo[3.2.1]octan-8-yl)-2-hydroxyethanone] | – | – | – | – | IC50 [1, 6]: 1 to 100 nM; IC50 [2, 6]: 1 to 100 nM |
| Nc1c(C2(O)CC2)c([C@@H]2C[C@H]3CC[C@@H](C2)N3C(=O)c2nc[nH]n2)nc2c(-c3ccc(-c4ccccc4)nc3)cnn12 [Compound 8.39] | – | – | – | – | IC50 ([1]; Homo sapiens, PC-3, PC3 cells): 1000 to 10000 nM; IC50 ([2]; Homo sapiens, PC-3, PC3 cells): 1000 to 10000 nM |
| COc1ccc(-c2ccc(-c3cnn4c(N)c(S(C)(=O)=O)c([C@@H]5C[C@H]6CC[C@@H](C5)N6C(=O)c5nnc[nH]5)nc34)cn2)cc1F [Compound 3.37, ((1R,3s,5S)-3-(7-amino-3-(6-(3-fluoro-4-methoxyphenyl)pyridin-3-yl)-6-(methylsulfonyl)pyrazolo[1,5-a]pyrimidin-5-yl)-8-azabicyclo[3.2.1]octan-8-yl)(4H-1,2,4-triazol-3-yl)methanone] | 1 to 100 nM | 1 to 100 nM | – | – | – |
| CC(O)c1ccc(-c2cnn3c(N)c(S(C)(=O)=O)c([C@@H]4C[C@H]5CC[C@@H](C4)N5C(=O)c4nnc[nH]4)nc23)cc1 (stereo partly drawn) [Compound 7.51, ((1R,3s,5S)-3-(7-amino-3-(4-(1-hydroxyethyl)phenyl)-6-(methylsulfonyl)pyrazolo [1,5-a]pyrimidin-5-yl)-8-azabicyclo[3.2.1]octan-8-yl)(4H-1,2,4-triazol-3-yl)methanone] | – | – | – | – | IC50 [1, 4]: 1 to 100 nM; IC50 [2, 4]: 1 to 100 nM |
| Cn1ccc(-c2ccc(-c3cnn4c(N)c(C5CC5)c([C@@H]5C[C@H]6CC[C@@H](C5)N6C(=O)c5nnc[nH]5)nc34)cn2)n1 [Compound 4.17, ((1R,3s,5S)-3-(7-amino-6-cyclopropyl-3-(6-(1-methyl-1H-pyrazol-3-yl)pyridin-3-yl)pyrazolo[1,5-a]pyrimidin-5-yl)-8-azabicyclo[3.2.1]octan-8-yl)(4H-1,2,4-triazol-3-yl)methanone] | – | – | 1 to 100 nM | 1 to 100 nM | – |
| CS(=O)(=O)c1c([C@H]2CC3CC[C@H](C2)N3C(=O)c2cn[nH]n2)nc2c(-c3cnn(-c4ccccc4)c3)cnn2c1N [Compound 3.176, ((1R,3s,5S)-3-(7-amino-6-(methylsulfonyl)-3-(1-phenyl-1H-pyrazol-4-yl)pyrazolo[1,5-a]pyrimidin-5-yl)-8-azabicyclo[3.2.1]octan-8-yl)(2H-1,2,3-triazol-4-yl)methanone] | 100 to 1000 nM | 100 to 1000 nM | – | – | – |
| Cc1nc(C(=O)N2[C@@H]3CC[C@H]2C[C@H](c2nc4c(-c5ccc(-c6csc(C)n6)nc5)cnn4c(N)c2S(C)(=O)=O)C3)n[nH]1 [Compound 3.199, ((1R,3s,5S)-3-(7-amino-6-(methylsulfonyl)-3-(6-(2-methylthiazol-4-yl)pyridin-3-yl)pyrazolo[1,5-a]pyrimidin-5-yl)-8-azabicyclo[3.2.1]octan-8-yl)(5-methyl-1H-1,2,4-triazol-3-yl)methanone] | 1 to 100 nM | 100 to 1000 nM | – | – | – |
| CS(=O)(=O)c1c([C@@H]2C[C@H]3CC[C@@H](C2)N3C(=N)N)nc2c(-c3ccc(-c4ccccc4)nc3)cnn2c1N [Compound 8.73, (1R,3s,5S)-3-(7-amino-6-(methylsulfonyl)-3-(6-phenylpyridin-3-yl)pyrazolo[1,5-a]pyrimidin-5-yl)-8-azabicyclo[3.2.1]octane-8-carboximidamide] | – | – | – | – | IC50 ([1]; Homo sapiens, PC-3, PC3 cells): 1000 to 10000 nM; IC50 ([2]; Homo sapiens, PC-3, PC3 cells): 1000 to 10000 nM |
| CC(=O)c1c([C@@H]2C[C@H]3CC[C@@H](C2)N3C(=O)c2nnc[nH]2)nc2c(-c3ccc([C@H](C)O)nc3)cnn2c1N [Compound 7.34, 1-(5-((1R,3s,5S)-8-(4H-1,2,4-triazole-3-carbonyl)-8-azabicyclo[3.2.1]octan-3-yl)-7-amino-3-(6-((S)-1-hydroxyethyl)pyridin-3-yl)pyrazolo[1,5-a]pyrimidin-6-yl)ethanone] | – | – | – | – | IC50 [1, 7]: 1 to 100 nM; IC50 [2, 7]: 1 to 100 nM |
| CC(=O)c1c([C@@H]2C[C@H]3CC[C@@H](C2)N3C(=O)CO)nc2c(-c3ccc(-c4c(F)cccc4F)nc3)cnn2c1N [Compound 1.1.171, 1-((1R,3s,5S)-3-(6-acetyl-7-amino-3-(6-(2,6-difluorophenyl)pyridin-3-yl)pyrazolo[1,5-a]pyrimidin-5-yl)-8-azabicyclo[3.2.1]octan-8-yl)-2-hydroxyethanone] | – | – | 1 to 100 nM | 1 to 100 nM | – |
| CCOc1ccc(-c2ccc(-c3cnn4c(N)c(C(C)=O)c([C@@H]5C[C@H]6CC[C@@H](C5)N6C(=O)c5nnc[nH]5)nc34)cn2)cc1 [Compound 1.1.73, 1-(5-((1R,3s,5S)-8-(4H-1,2,4-triazole-3-carbonyl)-8-azabicyclo[3.2.1]octan-3-yl)-7-amino-3-(6-(4-ethoxyphenyl)pyridin-3-yl)pyrazolo[1,5-a]pyrimidin-6-yl)ethanone] | – | – | 1 to 100 nM | 1 to 100 nM | – |
| CS(=O)(=O)c1c([C@@H]2C[C@H]3CC[C@@H](C2)N3)nc2c(-c3ccc(-c4ccccc4)nc3)cnn2c1N [Compound 3.202, 5-((1R,3s,5S)-8-azabicyclo[3.2.1]octan-3-yl)-6-(methylsulfonyl)-3-(6-phenylpyridin-3-yl)pyrazolo[1,5-a]pyrimidin-7-amine] | 1000 to 10000 nM | 1000 to 10000 nM | – | – | – |
| CC(=O)c1c([C@@H]2C[C@H]3CC[C@@H](C2)N3C(=O)c2nc[nH]n2)nc2c(-c3ccc(-c4ncc(C(F)F)s4)nc3)cnn2c1N [Compound 1.1.26, 1-(5-((1R,3s,5S)-8-(1H-1,2,4-triazole-3-carbonyl)-8-azabicyclo[3.2.1]octan-3-yl)-7-amino-3-(6-(5-(difluoromethyl)thiazol-2-yl)pyridin-3-yl)pyrazolo[1,5-a]pyrimidin-6-yl)ethanone] | – | – | 100 to 1000 nM | 100 to 1000 nM | – |
| CC(=O)c1c([C@@H]2C[C@H]3CC[C@@H](C2)N3C(=O)c2nnc[nH]2)nc2c(-c3cnn(CCO)c3)cnn2c1N [Compound 1.1.155, 1-(5-((1R,3s,5S)-8-(4H-1,2,4-triazole-3-carbonyl)-8-azabicyclo[3.2.1]octan-3-yl)-7-amino-3-(1-(2-hydroxyethyl)-1H-pyrazol-4-yl)pyrazolo[1,5-a]pyrimidin-6-yl)ethanone] | – | – | 1000 to 10000 nM | 1000 to 10000 nM | – |
